Source: PubChem BioAssay (NCI)
Where “and” joins values, the source holds several entries; their conditions need not be identical. Equal entries are not always repeated.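 Compound exposure: 48 hours, 5 concentrations, 96-well plates. GI50 is the concentration that inhibits growth by half. TGI is the concentration that stops growth completely.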

Assays:
Experiment in all cases: NCI tumour cell line growth inhibition, 48 h; in the data active means GI50 below about 0.43 µM; inactive means the rest
786-0 renal = tested on: 786-0 renal
OVCAR-4 ovarian = tested on: OVCAR-4 ovarian
NCI/ADR-RES ovarian = tested on: NCI/ADR-RES ovarian
DU-145 prostate = tested on: DU-145 prostate
NCI-H226 lung = tested on: NCI-H226 lung
RPMI-8226 leukemia = tested on: RPMI-8226 leukemia
SK-MEL-2 melanoma = tested on: SK-MEL-2 melanoma
SK-MEL-5 melanoma = tested on: SK-MEL-5 melanoma
M19-MEL melanoma = tested on: M19-MEL melanoma
LXFL 529 NSCLC = tested on: LXFL 529 NSCLC
A498 renal = tested on: A498 renal
MDA-MB-435 = tested on: MDA-MB-435
IGROV1 ovarian = tested on: IGROV1 ovarian
ACHN renal = tested on: ACHN renal
CAKI-1 renal = tested on: CAKI-1 renal
RXF 393 renal = tested on: RXF 393 renal
HL-60(TB) leukemia = tested on: HL-60(TB) leukemia
PC-3 prostate = tested on: PC-3 prostate
DMS 273 small cell lung = tested on: DMS 273 small cell lung
KM12 colon = tested on: KM12 colon
HCT-116 colon = tested on: HCT-116 colon
OVCAR-8 ovarian = tested on: OVCAR-8 ovarian
HT29 colon = tested on: HT29 colon
K-562 leukemia = tested on: K-562 leukemia
SF-268 CNS = tested on: SF-268 CNS
HOP-92 NSCLC = tested on: HOP-92 NSCLC
DMS 114 small cell lung = tested on: DMS 114 small cell lung
TK-10 renal = tested on: TK-10 renal
XF 498 CNS = tested on: XF 498 CNS
CCRF-CEM leukemia = tested on: CCRF-CEM leukemia
SK-MEL-28 melanoma = tested on: SK-MEL-28 melanoma
LOX IMVI melanoma = tested on: LOX IMVI melanoma
HCT-15 colon = tested on: HCT-15 colon
HOP-18 NSCLC = tested on: HOP-18 NSCLC
UACC-62 melanoma = tested on: UACC-62 melanoma
MOLT-4 leukemia = tested on: MOLT-4 leukemia
SNB-78 CNS = tested on: SNB-78 CNS
SK-OV-3 ovarian = tested on: SK-OV-3 ovarian
OVCAR-3 ovarian = tested on: OVCAR-3 ovarian
SF-539 CNS = tested on: SF-539 CNS
NCI-H522 lung = tested on: NCI-H522 lung
MALME-3M melanoma = tested on: MALME-3M melanoma
SN12C renal = tested on: SN12C renal
EKVX NSCLC = tested on: EKVX NSCLC
SR leukemia = tested on: SR leukemia
NCI-H23 lung = tested on: NCI-H23 lung
U251 CNS = tested on: U251 CNS
HCC-2998 colon = tested on: HCC-2998 colon
KM20L2 colon = tested on: KM20L2 colon
NCI-H460 lung = tested on: NCI-H460 lung
MCF7 breast = tested on: MCF7 breast
MDA-N = tested on: MDA-N
SNB-19 CNS = tested on: SNB-19 CNS
DLD-1 colon = tested on: DLD-1 colon
OVCAR-5 ovarian = tested on: OVCAR-5 ovarian
UACC-257 melanoma = tested on: UACC-257 melanoma
M14 melanoma = tested on: M14 melanoma
BT-549 breast = tested on: BT-549 breast
A549 NSCLC = tested on: A549 NSCLC
SF-295 CNS = tested on: SF-295 CNS
HOP-62 NSCLC = tested on: HOP-62 NSCLC
SNB-75 CNS = tested on: SNB-75 CNS
SW-620 colon = tested on: SW-620 colon
COLO 205 colon = tested on: COLO 205 colon
UO-31 renal = tested on: UO-31 renal
T-47D breast = tested on: T-47D breast
MDA-MB-231 breast = tested on: MDA-MB-231 breast
HS 578T breast = tested on: HS 578T breast
RXF-631 renal = tested on: RXF-631 renal
P388/ADR leukemia = tested on: P388/ADR leukemia
P388 leukemia = tested on: P388 leukemia

O=C(O)CNCc1c2ccccc2nc2ccccc12
91.1 µM: TGI (KM20L2 colon)
> 82.7 µM: TGI (K-562 leukemia)
> 91.5 µM: TGI (UO-31 renal)
> 95.4 µM: TGI (786-0 renal)
> 77.6 µM: TGI (XF 498 CNS)
71.9 µM: TGI (RPMI-8226 leukemia)
> 60.4 µM: TGI (SK-MEL-5 melanoma)
> 94.9 µM: TGI (UACC-257 melanoma)
> 79.4 µM: TGI (SNB-75 CNS)
> 71 µM: TGI (LXFL 529 NSCLC)
> 89.8 µM: TGI (OVCAR-4 ovarian)
> 78.3 µM: TGI (RXF 393 renal)
57.5 µM: TGI (NCI-H522 lung)
44.9 µM: TGI (MOLT-4 leukemia)
> 100 µM: TGI (NCI/ADR-RES ovarian) | TGI (DU-145 prostate) | TGI (NCI-H226 lung) | TGI (SK-MEL-2 melanoma) | TGI (M19-MEL melanoma) | TGI (A498 renal) | TGI (MDA-MB-435) | TGI (IGROV1 ovarian) | TGI (ACHN renal) | TGI (PC-3 prostate) | TGI (DMS 273 small cell lung) | TGI (KM12 colon) | TGI (OVCAR-8 ovarian) | TGI (SF-268 CNS) | TGI (TK-10 renal) | TGI (SK-MEL-28 melanoma) | TGI (LOX IMVI melanoma) | TGI (HCT-15 colon) | TGI (HOP-18 NSCLC) | TGI (UACC-62 melanoma) | TGI (SNB-78 CNS) | TGI (SK-OV-3 ovarian) | TGI (OVCAR-3 ovarian) | TGI (MALME-3M melanoma) | TGI (SN12C renal) | TGI (EKVX NSCLC) | TGI (NCI-H23 lung) | TGI (U251 CNS) | TGI (HCC-2998 colon) | TGI (MCF7 breast) | TGI (MDA-N) | TGI (SNB-19 CNS) | TGI (DLD-1 colon) | TGI (OVCAR-5 ovarian) | TGI (M14 melanoma) | TGI (BT-549 breast) | TGI (A549 NSCLC) | TGI (SF-295 CNS) | TGI (HOP-62 NSCLC) | TGI (SW-620 colon) | TGI (COLO 205 colon) | TGI (T-47D breast) | TGI (MDA-MB-231 breast) | TGI (HS 578T breast)
41.2 µM: TGI (CCRF-CEM leukemia)
> 90.8 µM: TGI (CAKI-1 renal)
87.2 µM: TGI (SF-539 CNS)
> 45.5 µM: TGI (HCT-116 colon)
> 86.7 µM: TGI (NCI-H460 lung)
72.7 µM: TGI (DMS 114 small cell lung)
85.4 µM: TGI (HOP-92 NSCLC)
> 70.5 µM: TGI (SR leukemia)
29.6 µM: TGI (HL-60(TB) leukemia)
> 84.8 µM: TGI (HT29 colon)

N#CC(N)(C(=O)C(=O)NCCCNC(=O)C(=O)C(N)(C#N)c1ccc(Cl)cc1)c1ccc(Cl)cc1 (stereo unspecified)
> 100 µM: TGI (786-0 renal) | TGI (OVCAR-4 ovarian) | TGI (NCI-H226 lung) | TGI (RPMI-8226 leukemia) | TGI (SK-MEL-2 melanoma) | TGI (SK-MEL-5 melanoma) | TGI (RXF-631 renal) | TGI (M19-MEL melanoma) | TGI (LXFL 529 NSCLC) | TGI (A498 renal) | TGI (IGROV1 ovarian) | TGI (ACHN renal) | TGI (CAKI-1 renal) | TGI (RXF 393 renal) | TGI (HL-60(TB) leukemia) | TGI (DMS 273 small cell lung) | TGI (KM12 colon) | TGI (HCT-116 colon) | TGI (OVCAR-8 ovarian) | TGI (HT29 colon) | TGI (K-562 leukemia) | TGI (SF-268 CNS) | TGI (HOP-92 NSCLC) | TGI (DMS 114 small cell lung) | TGI (TK-10 renal) | TGI (XF 498 CNS) | TGI (CCRF-CEM leukemia) | TGI (SK-MEL-28 melanoma) | TGI (LOX IMVI melanoma) | TGI (HCT-15 colon) | TGI (HOP-18 NSCLC) | TGI (UACC-62 melanoma) | TGI (MOLT-4 leukemia) | TGI (SNB-78 CNS) | TGI (SK-OV-3 ovarian) | TGI (OVCAR-3 ovarian) | TGI (SF-539 CNS) | TGI (NCI-H522 lung) | TGI (MALME-3M melanoma) | TGI (SN12C renal) | TGI (EKVX NSCLC) | TGI (SR leukemia) | TGI (NCI-H23 lung) | TGI (U251 CNS) | TGI (HCC-2998 colon) | TGI (KM20L2 colon) | TGI (NCI-H460 lung) | TGI (SNB-19 CNS) | TGI (DLD-1 colon) | TGI (OVCAR-5 ovarian) | TGI (UACC-257 melanoma) | TGI (M14 melanoma) | TGI (A549 NSCLC) | TGI (SF-295 CNS) | TGI (HOP-62 NSCLC) | TGI (SNB-75 CNS) | TGI (SW-620 colon) | TGI (COLO 205 colon) | TGI (UO-31 renal)

Nc1ncn(C2OC(CO)C(O)C2O)c(=O)n1 (stereo unspecified)
inactive: GI50 (DMS 114 small cell lung) 9.47 µM and 1.17 µM | GI50 (P388/ADR leukemia) 0.611 µM | GI50 (P388 leukemia) 0.55 µM
41.1 µM and 11.6 µM: TGI (P388/ADR leukemia)
250 µM and 125 µM: TGI (HOP-18 NSCLC)
> 250 µM and 28.4 µM: TGI (M19-MEL melanoma)
61.2 µM and 11.4 µM: TGI (XF 498 CNS)
36.7 µM and 7.61 µM: TGI (P388 leukemia)
215 µM and > 72.8 µM and 26.5 µM: TGI (EKVX NSCLC)
